Source: patent US7205382B2, “Peptides, the production and use thereof for binding immunoglobulins” (Fresenius Medical Care Affina GmbH, priority 2000, dated 2007)
Bridge positions count the residues as written; N and C are the ends. Square brackets hold non-standard residues; d marks the D form. Ends that are not written are not given here. cellulose = not defined here; βAla = NCCC(=O)O

Assays:
Type in all cases: binding
Parameters in all cases: key: No binding of immunoglobulin for the defined peptide variant, detection negative: 0; Binding of immunoglobulin for the defined peptide variant, detection positive: +
[1] = test system: serum albumin; test: Cellulose-immobilized 13-mer peptide variants incubated with serum albumin (negative control), anti-human IgG-AP detection; conditions: blocking buffer without addition, 3 h room temperature
Summary of the method: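 Membrane-bound peptides, spaced by two β-alanines, are probed with 1 μg/ml IgG-Fc or 1:10,000 serum for 3 h at room temperature; blocking buffer alone acts as control. Detection uses anti-human IgG-AP (1.2 μg/ml) and NBT/BCIP.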

[2] = test system: human IgG-Fc; test: Cellulose-immobilized 13-mer peptide variants incubated with human IgG-Fc, anti-human IgG-AP detection; conditions: IgG-Fc 1 μg/ml in blocking buffer, 3 h room temperature
Summary of the method: (§1)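 SPOT-type 13-mer peptides on cellulose with a (βA)(βA) spacer, blocked in 5% saccharose/4% BSA in T-TBS pH 8.0. Incubated 3 h at RT with human IgG-Fc (1 μg/ml) or human serum/plasma (1:10,000), or with blocking buffer alone as the albumin specificity control. Bound IgG detected with AP-anti-human IgG (1.2 μg/ml) and NBT/BCIP colorimetric development at pH 9.5.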

[3] = test system: immunoglobulins in human plasma; test: Cellulose-immobilized 13-mer peptide variants incubated with human plasma, anti-human IgG-AP detection; conditions: human plasma as sample, diluted 1:10,000 in blocking buffer, 3 h room temperature
Summary of the method: as §1

Row | Substance | Result for incubation with serum albumin (immunoglobulin binding detection) [1] | Result for incubation with human IgG-Fc (immunoglobulin binding detection) [2] | Result for incubation with human plasma (immunoglobulin binding detection) [3]
1 | 05E: cellulose-bound 13-mer variant DCAWELGELVWCT-(βA)(βA) (disulfide 2-12 (inferred); not fully specified (N-terminus, C-terminus); printed as DCAWELGELVWCT-(βA)(βA); also: cellulose-bound) | 0 | 0 | 0
2 | 05F: cellulose-bound 13-mer variant DCAWFLGELVWCT-(βA)(βA) (disulfide 2-12 (inferred); not fully specified (N-terminus, C-terminus); printed as DCAWFLGELVWCT-(βA)(βA); also: cellulose-bound) | 0 | 0 | 0
3 | 04E: cellulose-bound 13-mer variant DCAEHLGELVWCT-(βA)(βA) (DCAEHLGELVWCT[βAla][βAla]; disulfide 2-12 (inferred); also: cellulose-bound) | 0 | + | +
4 | 03M: cellulose-bound 13-mer variant DCMWHLGELVWCT-(βA)(βA) (DCMWHLGELVWCT-{βAla-βAla-cellulose}; disulfide 2-12 (inferred); reading uncertain; also: printed as DCMWHLGELVWCT-(βA)(βA)) | 0 | 0 | 0
5 | 08G: cellulose-bound 13-mer variant DCAWHLGGLVWCT-(βA)(βA) (DCAWHLGGLVWCT-{βAla-βAla-cellulose}; disulfide 2-12 (inferred); not fully specified (N-terminus); printed as DCAWHLGGLVWCT-(βA)(βA); reading uncertain) | 0 | 0 | 0
6 | 07R: cellulose-bound 13-mer variant DCAWHLRELVWCT-(βA)(βA) (DCAWHLRELVWCT-{βAla-βAla-cellulose}; disulfide 2-12 (inferred); not fully specified (N-terminus); printed as DCAWHLRELVWCT-(βA)(βA); reading uncertain) | 0 | 0 | 0
7 | 11H: cellulose-bound 13-mer variant DCAWHLGELVHCT-(βA)(βA) | 0 | + | 0
8 | 01L: cellulose-bound 13-mer variant LCAWHLGELVWCT-(βA)(βA) (LCAWHLGELVWCT-{βAla-βAla-cellulose}; disulfide 2-12 (inferred); reading uncertain; also: printed as LCAWHLGELVWCT-(βA)(βA)) | 0 | + | 0
9 | 03K: cellulose-bound 13-mer variant DCKWHLGELVWCT-(βA)(βA) (DCKWHLGELVWCT-{βAla-βAla-cellulose}; disulfide 2-12 (inferred); reading uncertain; also: printed as DCKWHLGELVWCT-(βA)(βA)) | 0 | + | 0
10 | 07V: cellulose-bound 13-mer variant DCAWHLVELVWCT-(βA)(βA) (DCAWHLVELVWCT-{βAla-βAla-cellulose}; disulfide 2-12 (inferred); not fully specified (N-terminus); printed as DCAWHLVELVWCT-(βA)(βA); reading uncertain) | 0 | 0 | 0
11 | 07Q: cellulose-bound 13-mer variant DCAWHLQELVWCT-(βA)(βA) (DCAWHLQELVWCT-{βAla-βAla-cellulose}; disulfide 2-12 (inferred); not fully specified (N-terminus); printed as DCAWHLQELVWCT-(βA)(βA); reading uncertain) | 0 | 0 | 0
12 | 01G: cellulose-bound 13-mer variant GCAWHLGELVWCT-(βA)(βA) (GCAWHLGELVWCT-{βAla-βAla-cellulose}; disulfide 2-12 (inferred); reading uncertain; also: printed as GCAWHLGELVWCT-(βA)(βA)) | 0 | + | +
13 | 08D: cellulose-bound 13-mer variant DCAWHLGDLVWCT-(βA)(βA) (DCAWHLGDLVWCT-{βAla-βAla-cellulose}; disulfide 2-12 (inferred); not fully specified (N-terminus); printed as DCAWHLGDLVWCT-(βA)(βA); reading uncertain) | 0 | + | +
14 | 01D: starting 13-mer DCAWHLGELVWCT-(βA)(βA), R1=amino, cellulose-bound | 0 | + | +
15 | 06V: cellulose-bound 13-mer variant DCAWHVGELVWCT-(βA)(βA) (DCAWHVGELVWCT-{βAla-βAla-cellulose}; disulfide 2-12 (inferred); not fully specified (N-terminus); printed as DCAWHVGELVWCT-(βA)(βA); reading uncertain) | 0 | 0 | 0
16 | 11L: cellulose-bound 13-mer variant DCAWHLGELVLCT-(βA)(βA) | 0 | 0 | 0
17 | 12D: cellulose-bound 13-mer variant DCAWHLGELVWDT-(βA)(βA) (DCAWHLGELVWDT-{βAla-βAla-cellulose}; not fully specified; printed as DCAWHLGELVWDT-(βA)(βA); reading uncertain) | 0 | 0 | 0
18 | 11Q: cellulose-bound 13-mer variant DCAWHLGELVQCT-(βA)(βA) | 0 | 0 | 0
19 | 12F: cellulose-bound 13-mer variant DCAWHLGELVWFT-(βA)(βA) (DCAWHLGELVWFT-{βAla-βAla-cellulose}; not fully specified; printed as DCAWHLGELVWFT-(βA)(βA); reading uncertain) | 0 | 0 | 0
20 | 10M: cellulose-bound 13-mer variant DCAWHLGELMWCT-(βA)(βA) (DCAWHLGELMWCT-{βAla-βAla-cellulose}; disulfide 2-12 (inferred); reading uncertain; also: printed as DCAWHLGELMWCT-(βA)(βA)) | 0 | 0 | 0
21 | 10I: cellulose-bound 13-mer variant DCAWHLGELIWCT-(βA)(βA) (DCAWHLGELIWCT-{βAla-βAla-cellulose}; disulfide 2-12 (inferred); reading uncertain; also: printed as DCAWHLGELIWCT-(βA)(βA)) | 0 | 0 | 0
22 | 08C: cellulose-bound 13-mer variant DCAWHLGCLVWCT-(βA)(βA) (DCAWHLGCLVWCT-{βAla-βAla-cellulose}; not fully specified (N-terminus); printed as DCAWHLGCLVWCT-(βA)(βA); cysteine pairing not given here; reading uncertain) | 0 | 0 | 0
